Reference: ChEMBL document CHEMBL1153711, “Synthesis and antimycobacterial evaluation of novel 5,6-dimethoxy-1-oxo-2,5-dihydro-1H-2-indenyl-5,4-substituted phenyl methanone analogues” (Bioorg Med Chem Lett, 2009)
Values after ≈ are worked out from the molar mass of the structure shown.

What follows are molecules tested on Mycobacterium tuberculosis (assay: Antimycobacterial activity against Mycobacterium tuberculosis H37Rv by agar dilution method).
Format: functional

SMILES	MIC [µM]
COc1cc2c(cc1OC)C(=O)C(C(=O)c1c(Cl)cccc1Cl)C2 (stereo not drawn)	2.48 (≈ 0.906 µg/mL)
COc1cc2c(cc1OC)C(=O)C(C(=O)c1cccc([N+](=O)[O-])c1)C2 (stereo not drawn)	3.46 (≈ 1.18 µg/mL)
COc1cc2c(cc1OC)C(=O)C(C(=O)c1ccc(Br)cc1)C2 (stereo not drawn)	4.94 (≈ 1.85 µg/mL)
COc1cc2c(cc1OC)C(=O)C(C(=O)c1ccc(C#N)cc1)C2 (stereo not drawn)	> 6.25
COc1cc2c(cc1OC)C(=O)C(C(=O)c1ccc(N(C)C)cc1)C2 (stereo not drawn)	5.94 (≈ 2.02 µg/mL)
COc1ccc(C(=O)C2Cc3cc(OC)c(OC)cc3C2=O)cc1 (stereo not drawn)	> 6.25
COc1cc2c(cc1OC)C(=O)C(C(=O)c1ccc(Cl)cc1)C2 (stereo not drawn)	1.52 (≈ 0.503 µg/mL)
COc1cc2c(cc1OC)C(=O)C(C(=O)c1ccccc1)C2 (stereo not drawn)	6.62 (≈ 1.96 µg/mL)
COc1ccc(C(=O)C2Cc3cc(OC)c(OC)cc3C2=O)cc1OC (stereo not drawn)	> 6.25
COc1cc2c(cc1OC)C(=O)C(C(=O)c1cc(OC)c(OC)c(OC)c1)C2 (stereo not drawn)	> 6.25
COc1cc2c(cc1OC)C(=O)C(C(=O)c1ccc(F)cc1)C2 (stereo not drawn)	0.1 (≈ 0.0314 µg/mL)
COc1cc2c(cc1OC)C(=O)C(C(=O)c1ccccc1Cl)C2 (stereo not drawn)	1.82 (≈ 0.602 µg/mL)
NNC(=O)c1ccncc1 [ISONIAZID]	0.75 (≈ 0.103 µg/mL)
